The subject of one assay is skin of volunteers. Nature of the assay: Psychophysics: itch sensation after insertion of native or reconstituted cowhage spicules into skin. The class given is in vivo. Conditions: human volunteers; for blocking of itch and other sensations evoked by mucunain-containing spicules: E64 added during reconstitution of spicules; for itch evoked by PAR4 peptide agonist incubated with inactivated spicules: spicules incubated with peptide at 10 mM; for itch evoked by substance loaded into inactivated spicules: autoclaved spicules soaked in the substance and dried. Here is the method:
Reconstitution of spicules—Native spicules were inactivated by autoclaving for 1 hour and reconstituted with native and recombinant mucunains in the presence or absence of cysteine protease inhibitor, E64. Typically, 50 mg of inactivated spicules were mixed with 0.4 ml of 28 μM mucunain in a 2 ml microfuge tube, vortexed, and dried in a Speed-vac for 2 hours at room temperature. These spicules were then considered as ‘reconstituted’ with the protease alone. Spicules prepared in a similar manner but with E64 added at twice the concentration of mucunain, are considered reconstituted with the protease and the inhibitor.
Psychophysics—These protocols were approved by the Yale University Human Investigation Committee. A row of 10 cowhage spicules were lightly pasted to the flattened end of a Weck-Cel surgical strip, spaced at 1 mm, and applied parallel to the surface of the skin at the mid-volar forearm. […] Every 30 sec, subjects rated the magnitude of each of three qualities of sensation: Itch, pricking/stinging, and burning using the Generalized Labeled Magnitude Scale (Bartoshuk et al. 2004) that employs appropriately placed intensity descriptors of “none”, “barely detectable”, “weak”, “moderate”, “strong”, “very strong” and, at the top of the scale, “the strongest sensation imaginable.” Voltages derived from each subject's movements of a computer mouse that controlled a cursor on a visual representation of this scale were converted to numbers between 0 and 100 and plotted for each quality at successive intervals of 30 s up to 20 min after the insertion of cowhage. Each of nine subjects received, in separate tests, five types of cowhage spicules: native cowhage spicules, heat-inactivated spicules that had been soaked in a solution of cowhage extract containing E64, or the same but without E64, and heat-inactivated spicules that had been previously soaked in a solution of recombinant mucunain containing E64, or the same but without E64. The subject and experimenter were blinded as to the type of spicule administered.
The sensory effects of mucunain was further analyzed. A method of introducing mucunain into the skin of volunteers that would mimic the approach associated with the spicules was developed. Such a method would decrease or eliminate the pain associated with using conventional needles as such nociception might interfere with the sensation of itch. Spicules are inactivated when autoclaved but appear to maintain their physical structure. Inactivated spicules were soaked in a solution containing native or recombinant mucunain and then dried. One gram of fresh spicules was stirred for one hour at 4° C. with 20 ml of 0.1 M potassium phosphate buffer (pH 4.8) and 0.9% NaCl and the liquid removed by filtration through cheesecloth. The spicules were teased from the cheesecloth and autoclaved under dry heat for 30 minutes. The mucuna extract was passed through molecular filters to remove components with molecular weights of less than 9 kD. 50 mg of the inactivated, dried spicules were then soaked in 0.05 ml of the filtered extract containing 0.07 mg of cysteine protease (as determined by non-interfering protein assay) with or without 3.5 micrograms of E-64. The spicules were subsequently dried in a Speed-Vac for 2 hours. These spicules were considered ‘reconstituted’ with one batch containing the cysteine protease and its inhibitor and another batch, the protease alone. An analogous approach was used to load spicules with papain or histamine.

A further assay deals with PAR4. Nature of the assay: PAR activation by cytoplasmic calcium release, ratiometric Fura-2 imaging, PAR4 transfected HeLa cells. Conditions: for calcium influx in PAR4 transfected HeLa cells: Fura-2 340:380 ratiometric imaging. The class given is cell-based, human. Here is the method: PAR activation observed by cytoplasmic calcium release—The four human PAR cDNAs were obtained from commercial sources and cloned into the pcDNA3.1 (−) vector (Invitrogen). HeLa cells were transfected with 10 μg of vector cDNA using Lipofectamine 2000 (Invitrogen) and cultured for two days in 96-well glass bottom plates at 30,000 cells/well. Cells were loaded with Fura-2 as follows. The medium was aspirated and replaced with 100 μl of complete DMEM containing 2 μM Fura-2 (Invitrogen) and kept at room temperature in the dark for 1 hr. The medium was again aspirated and each well received 90 μl of HEPES buffered saline (20 mM HEPES, 115 mM NaCl, 5.4 mM KCl, 2 mM CaCl2, 0.8 mM MgCl2, 13.8 mM glucose, pH 7.4). Plates were observed using a Zeiss Axiovert 200M microscope equipped with a filter wheel for monitoring excitation at 340 and 380 nm. Axiovision software, version 4.6 was used to analyze ratiometric calcium imaging of the cells. Ten μl of protease was applied approximately 20 seconds after the start of excitation. Images were taken every 5 seconds, beginning at time zero, for 3 minutes. The software was used to analyze the 37 images taken during each 3-minute period.

A further assay concerns the target T1, mucunain (Mucuna pruriens, UniProt B2LSD2).
T1 construct: made in house; host or cells: E. coli ER2566 (pTWIN1MUC1300) for recombinant mucunain; native mucunain extracted from M. pruriens spicules
The assay is described as follows: Chromogenic substrate assay, inhibition of mucunain by E64. In kind it is biochemical, M. pruriens. Conditions: native mucunain 0.9 μM, recombinant mucunain 2.7 μM. The text has this: Papain served as a control cysteine protease.

Where no end group is shown, it is not given here.

T1 sequence (B2LSD2 99-430): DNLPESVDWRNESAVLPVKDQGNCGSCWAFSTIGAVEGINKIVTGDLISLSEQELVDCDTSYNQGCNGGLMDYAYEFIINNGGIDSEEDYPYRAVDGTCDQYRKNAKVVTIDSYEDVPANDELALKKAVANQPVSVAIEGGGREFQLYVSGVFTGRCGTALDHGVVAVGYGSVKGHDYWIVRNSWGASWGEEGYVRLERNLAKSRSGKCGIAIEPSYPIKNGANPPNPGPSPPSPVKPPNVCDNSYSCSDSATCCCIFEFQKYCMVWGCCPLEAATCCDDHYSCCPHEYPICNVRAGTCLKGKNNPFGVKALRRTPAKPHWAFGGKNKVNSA

As to `CC(C)C[C@H](NC(=O)[C@H]1O[C@@H]1C(=O)O)C(=O)NCCCCNC(=N)N` (relative stereo) [E64, 1-[N-[(L-3-trans-carboxyoxirane-2-carbonyl)-L-leucyl]amino]-4-guanidinobutane], the figures for the “blocking of itch and other sensations evoked by mucunain-containing spicules” value in the assay on skin of volunteers and with skin of volunteers (listed as E-64) were “blocked all sensations” and “effective in preventing itch”, respectively. In addition, the “blocking of protease-induced PAR4 activation” value in the assay with PAR4 (native mucunain, recombinant mucunain and papain in the presence of E64) was “blocked”. Besides, the “blocking of Z-FR-pNA cleavage by mucunain” value at mucunain is recorded as “blocked”.

For the compound AYPGKF-NH2, the “itch evoked by PAR4 peptide agonist incubated with inactivated spicules” value in the assay with skin of volunteers is listed as “elicited itch”. Moreover, the “calcium influx in PAR4 transfected HeLa cells” value (“calcium influx” for short) in the assay on PAR4 is “induced calcium influx”.

In the case of ficin, the “calcium influx” value in the assay with PAR4 is reported as “induced calcium influx”.

bromelain: in the assay on skin of volunteers, the “itch evoked by substance loaded into inactivated spicules” value was “produced itch”. Moreover, the “calcium influx” value with PAR4 is “induced calcium influx”.

Consider `NCCc1c[nH]cn1` [histamine], for which the “itch evoked by substance loaded into inactivated spicules” value in the assay with skin of volunteers is listed as “produced itch”.

As for GYPGKF-NH2 [ID; No. 28], in the assay with skin of volunteers, the “itch evoked by PAR4 peptide agonist incubated with inactivated spicules” value is “elicited itch”.

Source of the values: patent US20080213252A1, “METHODS OF TREATING ITCH” (priority 2007, published 2008).
